Where two headings read alike, the source gives them in different places.
Assays:
[1] = Ib-3 uptake and dosimetry studies in rats; human estimated dosimetry (OLINDA/EXM 2.0); format: in vivo, Sprague-Dawley rats; details: estimates of human dosimetry from rat distribution data
Procedure: Uptake and dosimetry studies of (S)—N-(2-(2-cyanopyrrolidin-1-yl)-2-oxoethyl)-6-fluroquinoline-4-carboxamide (Ib-3) were performed in Sprague-Dawley rats (n=4, 2 males, 2 females) at 10, 20, 60, and 120 min. Rats were anesthetized with isoflurane, and (S)—N-(2-(2-cyanopyrrolidin-1-yl)-2-oxoethyl)-6-fluroquinoline-4-carboxamide (Ib-3) was administered via tail vein injections. At the appropriate time points, animals were euthanized, and their tissues procured for measuring radioactivity. Radioactivity was measured in a well counter and expressed as decay-corrected percentage injected dose per gram of tissue. Radiation dosimetry was calculated from the distribution data and was used to determine estimates of human dosimetry with OLINDA/EXM 2.0 software, or equivalent.
Human estimated dosimetry is given in Table 1, below, in mSv/MBq injected for each organ for males, females, and gender averaged: […]

FAP = target: T1, FAP (Homo sapiens, UniProt Q12884); details: cited from earlier work; for tumor to kidney ratio: [^177Lu] agent
T1 sequence (Q12884 1-760): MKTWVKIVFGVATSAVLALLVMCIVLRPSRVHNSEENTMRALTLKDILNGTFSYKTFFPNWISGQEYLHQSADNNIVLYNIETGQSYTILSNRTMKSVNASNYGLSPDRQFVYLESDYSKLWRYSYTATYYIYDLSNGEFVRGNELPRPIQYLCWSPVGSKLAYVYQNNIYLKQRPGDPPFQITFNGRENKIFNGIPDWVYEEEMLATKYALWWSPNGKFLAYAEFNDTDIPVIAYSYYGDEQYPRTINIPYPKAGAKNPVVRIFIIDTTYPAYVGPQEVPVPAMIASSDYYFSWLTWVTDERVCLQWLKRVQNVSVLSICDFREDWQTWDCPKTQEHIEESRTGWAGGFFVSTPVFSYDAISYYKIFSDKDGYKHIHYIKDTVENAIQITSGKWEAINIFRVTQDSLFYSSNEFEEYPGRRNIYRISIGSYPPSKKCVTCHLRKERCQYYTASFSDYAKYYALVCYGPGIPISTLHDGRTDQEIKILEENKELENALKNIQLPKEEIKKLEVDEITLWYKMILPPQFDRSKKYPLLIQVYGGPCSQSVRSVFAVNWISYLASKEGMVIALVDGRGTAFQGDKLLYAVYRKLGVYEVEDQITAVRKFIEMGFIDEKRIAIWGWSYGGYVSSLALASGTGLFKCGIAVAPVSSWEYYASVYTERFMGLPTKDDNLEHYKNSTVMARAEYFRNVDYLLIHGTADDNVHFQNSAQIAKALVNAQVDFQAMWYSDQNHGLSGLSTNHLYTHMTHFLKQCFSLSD

SMILES: N#C[C@@H]1CCCN1C(=O)CNC(=O)c1ccnc2ccc([18F])cc12 [Ib-3, (S)—N-(2-(2-cyanopyrrolidin-1-yl)-2-oxoethyl)-6-[18F]fluoroquinoline-4-carboxamide]
- Human estimated dosimetry: Adrenals ([1]; Females): 1.02E−02 mSv/MBq
- Human estimated dosimetry: Brain ([1]; Females): 3.83E−03 mSv/MBq
- Human estimated dosimetry: Breasts ([1]; Females): 1.23E−02 mSv/MBq
- Human estimated dosimetry: Effective Dose ([1]; Females): 1.39E−02 mSv/MBq
- Human estimated dosimetry: Esophagus ([1]; Females): 1.29E−02 mSv/MBq
- Human estimated dosimetry: Eyes ([1]; Females): 6.79E−03 mSv/MBq
- Human estimated dosimetry: Gallbladder Wall ([1]; Females): 1.64E−02 mSv/MBq
- Human estimated dosimetry: Heart Wall ([1]; Females): 1.46E−02 mSv/MBq
- Human estimated dosimetry: Kidneys ([1]; Females): 1.48E−02 mSv/MBq
- Human estimated dosimetry: Left colon ([1]; Females): 2.18E−02 mSv/MBq
- Human estimated dosimetry: Liver ([1]; Females): 9.11E−03 mSv/MBq
- Human estimated dosimetry: Lungs ([1]; Females): 9.36E−03 mSv/MBq
- Human estimated dosimetry: Osteogenic Cells ([1]; Females): 1.90E−02 mSv/MBq
- Human estimated dosimetry: Ovaries ([1]; Females): 1.40E−02 mSv/MBq
- Human estimated dosimetry: Pancreas ([1]; Females): 1.19E−02 mSv/MBq
- Human estimated dosimetry: Rectum ([1]; Females): 1.94E−02 mSv/MBq
- Human estimated dosimetry: Red Marrow ([1]; Females): 1.58E−02 mSv/MBq
- Human estimated dosimetry: Right colon ([1]; Females): 1.99E−02 mSv/MBq
- Human estimated dosimetry: Salivary Glands ([1]; Females): 1.34E−02 mSv/MBq
- Human estimated dosimetry: Small Intestine ([1]; Females): 2.75E−02 mSv/MBq
- Human estimated dosimetry: Spleen ([1]; Females): 1.00E−02 mSv/MBq
- Human estimated dosimetry: Stomach Wall ([1]; Females): 1.69E−02 mSv/MBq
- Human estimated dosimetry: Thymus ([1]; Females): 1.50E−02 mSv/MBq
- Human estimated dosimetry: Thyroid ([1]; Females): 1.38E−02 mSv/MBq
- Human estimated dosimetry: Total Body ([1]; Females): 1.49E−02 mSv/MBq
- Human estimated dosimetry: Urinary Bladder Wall ([1]; Females): 3.42E−02 mSv/MBq
- Human estimated dosimetry: Uterus ([1]; Females): 1.49E−02 mSv/MBq
- Human estimated dosimetry: Adrenals ([1]; Gender Averaged): 9.65E−03 mSv/MBq
- Human estimated dosimetry: Brain ([1]; Gender Averaged): 3.31E−03 mSv/MBq
- Human estimated dosimetry: Breasts ([1]; Gender Averaged): 1.23E−02 mSv/MBq
- Human estimated dosimetry: Effective Dose ([1]; Gender Averaged): 1.25E−02 mSv/MBq
- Human estimated dosimetry: Esophagus ([1]; Gender Averaged): 1.21E−02 mSv/MBq
- Human estimated dosimetry: Eyes ([1]; Gender Averaged): 6.09E−03 mSv/MBq
- Human estimated dosimetry: Gallbladder Wall ([1]; Gender Averaged): 1.49E−02 mSv/MBq
- Human estimated dosimetry: Heart Wall ([1]; Gender Averaged): 1.26E−02 mSv/MBq
- Human estimated dosimetry: Kidneys ([1]; Gender Averaged): 1.52E−02 mSv/MBq
- Human estimated dosimetry: Left colon ([1]; Gender Averaged): 1.99E−02 mSv/MBq
- Human estimated dosimetry: Liver ([1]; Gender Averaged): 8.47E−03 mSv/MBq
- Human estimated dosimetry: Lungs ([1]; Gender Averaged): 8.27E−03 mSv/MBq
- Human estimated dosimetry: Osteogenic Cells ([1]; Gender Averaged): 1.84E−02 mSv/MBq
- Human estimated dosimetry: Ovaries ([1]; Gender Averaged): 1.40E−02 mSv/MBq
- Human estimated dosimetry: Pancreas ([1]; Gender Averaged): 1.10E−02 mSv/MBq
- Human estimated dosimetry: Prostate ([1]; Gender Averaged): 1.66E−02 mSv/MBq
- Human estimated dosimetry: Rectum ([1]; Gender Averaged): 1.78E−02 mSv/MBq
- Human estimated dosimetry: Red Marrow ([1]; Gender Averaged): 1.43E−02 mSv/MBq
- Human estimated dosimetry: Right colon ([1]; Gender Averaged): 1.82E−02 mSv/MBq
- Human estimated dosimetry: Salivary Glands ([1]; Gender Averaged): 1.26E−02 mSv/MBq
- Human estimated dosimetry: Small Intestine ([1]; Gender Averaged): 2.59E−02 mSv/MBq
- Human estimated dosimetry: Spleen ([1]; Gender Averaged): 9.10E−03 mSv/MBq
- Human estimated dosimetry: Stomach Wall ([1]; Gender Averaged): 1.55E−02 mSv/MBq
- Human estimated dosimetry: Testes ([1]; Gender Averaged): 7.86E−03 mSv/MBq
- Human estimated dosimetry: Thymus ([1]; Gender Averaged): 1.34E−02 mSv/MBq
- Human estimated dosimetry: Thyroid ([1]; Gender Averaged): 1.29E−02 mSv/MBq
- Human estimated dosimetry: Total Body ([1]; Gender Averaged): 1.37E−02 mSv/MBq
- Human estimated dosimetry: Urinary Bladder Wall ([1]; Gender Averaged): 4.15E−02 mSv/MBq
- Human estimated dosimetry: Uterus ([1]; Gender Averaged): 1.49E−02 mSv/MBq
- Human estimated dosimetry: Adrenals ([1]; Males): 9.10E−03 mSv/MBq
- Human estimated dosimetry: Brain ([1]; Males): 2.79E−03 mSv/MBq
- Human estimated dosimetry: Effective Dose ([1]; Males): 1.10E−02 mSv/MBq
- Human estimated dosimetry: Esophagus ([1]; Males): 1.13E−02 mSv/MBq
- Human estimated dosimetry: Eyes ([1]; Males): 5.39E−03 mSv/MBq
- Human estimated dosimetry: Gallbladder Wall ([1]; Males): 1.33E−02 mSv/MBq
- Human estimated dosimetry: Heart Wall ([1]; Males): 1.06E−02 mSv/MBq
- Human estimated dosimetry: Kidneys ([1]; Males): 1.56E−02 mSv/MBq
- Human estimated dosimetry: Left colon ([1]; Males): 1.80E−02 mSv/MBq
- Human estimated dosimetry: Liver ([1]; Males): 7.83E−03 mSv/MBq
- Human estimated dosimetry: Lungs ([1]; Males): 7.17E−03 mSv/MBq
- Human estimated dosimetry: Osteogenic Cells ([1]; Males): 1.78E−02 mSv/MBq
- Human estimated dosimetry: Pancreas ([1]; Males): 1.00E−02 mSv/MBq
- Human estimated dosimetry: Prostate ([1]; Males): 1.66E−02 mSv/MBq
- Human estimated dosimetry: Rectum ([1]; Males): 1.62E−02 mSv/MBq
- Human estimated dosimetry: Red Marrow ([1]; Males): 1.27E−02 mSv/MBq
- Human estimated dosimetry: Right colon ([1]; Males): 1.65E−02 mSv/MBq
- Human estimated dosimetry: Salivary Glands ([1]; Males): 1.17E−02 mSv/MBq
- Human estimated dosimetry: Small Intestine ([1]; Males): 2.42E−02 mSv/MBq
- Human estimated dosimetry: Spleen ([1]; Males): 8.20E−03 mSv/MBq
- Human estimated dosimetry: Stomach Wall ([1]; Males): 1.40E−02 mSv/MBq
- Human estimated dosimetry: Testes ([1]; Males): 7.86E−03 mSv/MBq
- Human estimated dosimetry: Thymus ([1]; Males): 1.18E−02 mSv/MBq
- Human estimated dosimetry: Thyroid ([1]; Males): 1.20E−02 mSv/MBq
- Human estimated dosimetry: Total Body ([1]; Males): 1.25E−02 mSv/MBq
- Human estimated dosimetry: Urinary Bladder Wall ([1]; Males): 4.87E−02 mSv/MBq

SMILES: CN(CCCN1CCN(C(=O)CN2CCN(CC(=O)O)CCN(CC(=O)O)CCN(CC(=O)O)CC2)CC1)c1ccc2nccc(C(=O)NCC(=O)N3CC(F)(F)C[C@H]3C#N)c2c1 [FAPI-46]
- tumor to background ratio relative to FAP-2286 (FAP; [^68Ga] agent, early time points): 3-5 times
- tumor to kidney ratio (FAP; 3 h): 21.0
- tumor to kidney ratio (FAP; 24 hours): 12.7
- tumor to kidney ratio (FAP; 72 h): 8

Source: patent US20260273110A1, “Radiolabeled Fibroblast Activation Protein Inhibitors and Methods of Making Same” (REGENTS OF THE UNIVERSITY OF MICHIGAN, priority 2023, published 2026)
